The test system of this assay is CAL51 cell proliferation. Kind of assay: Cell Titer Glo Proliferation Assay (CAL51). The format is cell-based, human. Particulars: Homo sapiens, CAL-51; CAL51 cell proliferation, 72 h, Cell Titer Glo luminescence; read-out: Act. Level. The procedure, abridged:
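CAL51 triple-negative breast cancer cells in DMEM or RPMI with 10% FBS were treated after overnight culture with serially diluted compound at 0.2% final DMSO. After 72 h, viability was read as CellTiter-Glo luminescence.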
Background: ATP-based viability assays read luminescence as a measure of living cells.

28 compounds from US9346812B2, “Substituted pyrrolopyrimidine compounds, compositions thereof, and methods of treatment therewith” (Signal Pharmaceutical LLC, priority 2013, dated 2016) can be followed below.

Take `COc1cc(C(=O)N2C[C@@H](O)[C@H](OC)C2)ccc1Nc1nc(OC2CCCC2)c2c(-c3ccc4nc(C)oc4c3)c[nH]c2n1` [Example 291, (4-(4-(cyclopentyloxy)-5-(2-methylbenzo[d]oxazol-6-yl)-7H-pyrrolo[2,3-d]pyrimidin-2-ylamino)-3-methoxyphenyl) ((3R,4R)-3-hydroxy-4-methoxypyrrolidin-1-yl) methanone]: the IC50 was below 0.1 µM.

As for `COCCOc1nc(Nc2ccc(C(=O)N(C)C)cc2OC)nc2[nH]cc(-c3cnn(C)c3)c12` [Example 221, 3-methoxy-4-(4-(2-methoxyethoxy)-5-(1-methyl-1H-pyrazol-4-yl)-7H-pyrrolo[2,3-d]pyrimidin-2-ylamino)-N,N-dimethylbenzamide], the IC50 was below 0.1 µM. The result for `COc1cc(-c2cn[nH]c2)ccc1Nc1nc(OC2CCCC2)c2c(-c3ccc(O)cc3)c[nH]c2n1` [Example 50, 4-(4-(cyclopentyloxy)-2-(2-methoxy-4-(1H-pyrazol-4-yl)phenylamino)-7H-pyrrolo[2,3-d]pyrimidin-5-yl) phenol] reads below 0.1 µM. In the case of `COc1cc(C(=O)N(CCO)C2CC2)ccc1Nc1nc(OC2CCCC2)c2c(-c3ccc4nc(C)oc4c3)c[nH]c2n1` [Example 251, 4-(4-(cyclopentyloxy)-5-(2-methylbenzo[d]oxazol-6-yl)-7H-pyrrolo[2,3-d]pyrimidin-2-ylamino)-N-cyclopropyl-N-(2-hydroxyethyl)-3-methoxybenzamide], the IC50 lay in the range of 0.1 to 0.4 µM. The result for `CNC(=O)c1ccc(Nc2nc(NC3CCOCC3)c3c(-c4ccc(O)cc4)c[nH]c3n2)c(OC)c1` [Example 40, 4-(5-(4-hydroxyphenyl)-4-(tetrahydro-2H-pyran-4-ylamino)-7H-pyrrolo[2,3-d]pyrimidin-2-ylamino)-3-methoxy-N-methylbenzamide] reads below 0.1 µM; that for `CNC(=O)c1ccc(Nc2nc(OC3CCOCC3)c3c(-c4ccnc(C(=O)NC)c4)c[nH]c3n2)c(OC)c1` [Example 288, 4-(2-(2-methoxy-4-(methylcarbamoyl)phenylamino)-4-(tetrahydro-2H-pyran-4-yloxy)-7H-pyrrolo[2,3-d]pyrimidin-5-yl)-N-methylpicolinamide], 0.1 to 0.4 µM. Under `CNC(=O)c1ccc(Nc2nc(OC3CCOCC3)c3c(-c4ccnc(O)c4)c[nH]c3n2)c(OC)c1` [Example 147, 4-(5-(2-hydroxypyridin-4-yl)-4-(tetrahydro-2H-pyran-4-yloxy)-7H-pyrrolo[2,3-d]pyrimidin-2-ylamino)-3-methoxy-N-methylbenzamide] stands 0.1 to 0.4 µM; under `COc1cc(C(=O)NCCO)ccc1Nc1nc(OC2CCOCC2)c2c(-c3ccc4nc(C)oc4c3)c[nH]c2n1` [Example 213, N-(2-hydroxyethyl)-3-methoxy-4-(5-(2-methylbenzo[d]oxazol-6-yl)-4-(tetrahydro-2H-pyran-4-yloxy)-7H-pyrrolo[2,3-d]pyrimidin-2-ylamino)benzamide], below 0.1 µM.

With `COc1cc(C(=O)N(C)CC2(C)COC2)ccc1Nc1nc(OC2CCCC2)c2c(-c3ccc4nc(C)oc4c3)c[nH]c2n1` [Example 271, 4-(4-(cyclopentyloxy)-5-(2-methylbenzo[d]oxazol-6-yl)-7H-pyrrolo[2,3-d]pyrimidin-2-ylamino)-3-methoxy-N-methyl-N-((3-methyloxetan-3-yl)methyl)benzamide], the IC50 is below 0.1 µM.

In the case of `CNC(=O)c1ccc(Nc2nc(OC3CCCC3)c3c(-c4cncc(O)c4)c[nH]c3n2)c(OC)c1` [Example 51, 4-(4-(cyclopentyloxy)-5-(5-hydroxypyridin-3-yl)-7H-pyrrolo [2,3-d]pyrimidin-2-ylamino)-3-methoxy-N-methylbenzamide], the IC50 is below 0.1 µM. The result for `CNC(=O)c1ccc(Nc2nc(OC3CCCC3)c3c(-c4cn[nH]c4)c[nH]c3n2)c(OC)c1` [Example 82, 4-(4-(cyclopentyloxy)-5-(1H-pyrazol-4-yl)-7H-pyrrolo[2,3-d]pyrimidin-2-ylamino)-3-methoxy-N-methylbenzamide] reads below 0.1 µM; that for `CNC(=O)c1ccc(-c2c[nH]c3nc(Nc4ccc(C(=O)NC5COC5)cc4OC)nc(OC4CCCC4)c23)cc1` [Example 305, 4-(4-(cyclopentyloxy)-5-(4-(methylcarbamoyl)phenyl)-7H-pyrrolo[2,3-d]pyrimidin-2-ylamino)-3-methoxy-N-(oxetan-3-yl)benzamide], below 0.1 µM; that for `CCOc1ccc(-c2c[nH]c3nc(Nc4ccc(C(=O)NC)cc4C)nc(O[C@H]4CCOC4)c23)cn1` [Example 162, (S)-4-(5-(6-ethoxypyridin-3-yl)-4-(tetrahydrofuran-3-yloxy)-7H-pyrrolo[2,3-d]pyrimidin-2-ylamino)-N,3-dimethylbenzamide], 0.1 to 0.4 µM.

Take `Cc1cc(C(=O)N(C)C)ccc1Nc1nc(OC2CCOCC2)c2c(-c3ccnc(C#N)c3)c[nH]c2n1` [Example 140, 4-(5-(2-cyanopyridin-4-yl)-4-(tetra-hydro-2H-pyran-4-yloxy)-7H-pyrrolo[2,3-d]pyrimidin-2-ylamino)-N,N,3-trimethylbenzamide]: the IC50 was 0.1 to 0.4 µM. As for `COc1cc(C(=O)NC[C@@H]2CCCO2)ccc1Nc1nc(OC2CCCC2)c2c(-c3ccc4nc(C)oc4c3)c[nH]c2n1` [Example 254, (S)-4-(4-(cyclopentyloxy)-5-(2-methylbenzo[d]oxazol-6-yl)-7H-pyrrolo[2,3-d]pyrimidin-2-ylamino)-3-methoxy-N-((tetrahydrofuran-2-yl)methyl) benzamide], the IC50 fell in the range of 0.1 to 0.4 µM. Under `COc1nc(Nc2ccc(C(=O)N3CCOCC3)cc2Cl)nc2[nH]cc(-c3ccc(-c4nnc[nH]4)cc3)c12` [Example 68, (4-(5-(4-(4H-1,2,4-triazol-3-yl)phenyl)-4-methoxy-7H-pyrrolo [2,3-d]pyrimidin-2-ylamino)-3-chlorophenyl)(morpholino) methanone] stands 0.1 to 0.4 µM; under `COc1nc(Nc2ccc(C(=O)N(C)C)cc2C)nc2[nH]cc(-c3ccc4nc(C)oc4c3)c12` [Example 73, 4-(4-methoxy-5-(2-methylbenzo[d]oxazol-6-yl)-7H-pyrrolo[2,3-d]pyrimidin-2-ylamino)-N,N,3-trimethylbenzamide], 1 to 10 µM. Under `CNC(=O)c1ccc(Nc2nc(OC(C)C)c3c(-c4cnn(C)c4)c[nH]c3n2)c(OC)c1` [Example 189, 4-(4-isopropoxy-5-(1-methyl-1H-pyrazol-4-yl)-7H-pyrrolo[2,3-d]pyrimidin-2-ylamino)-3-methoxy-N-methylbenzamide] stands below 0.1 µM.

Take `COc1cc(C(=O)NCCCO)ccc1Nc1nc(OC2CCCC2)c2c(-c3ccc4nc(C)oc4c3)c[nH]c2n1` [Example 232, 4-(4-(cyclopentyloxy)-5-(2-methylbenzo[d]oxazol-6-yl)-7H-pyrrolo[2,3-d]pyrimidin-2-ylamino)-N-(3-hydroxypropyl)-3-methoxybenzamide]: the IC50 was below 0.1 µM. The result for `COc1ccccc1Nc1nc(OC2CCCC2)c2c(-c3ccc4nc(C)oc4c3)c[nH]c2n1` [Example 103, 4-(cyclopentyloxy)-N-(2-methoxyphenyl)-5-(2-methylbenzo[d]oxazol-6-yl)-7H-pyrrolo[2,3-d]pyrimidin-2-amine] reads 0.1 to 0.4 µM; that for `COc1cc(C(=O)N(C)C)ccc1Nc1nc(OC2CCCC2)c2c(-c3ccc(O)cc3)c[nH]c2n1` [Example 31, 4-(4-(cyclopentyloxy)-5-(4-hydroxyphenyl)-7H-pyrrolo[2,3-d]pyrimidin-2-ylamino)-3-methoxy-N,N-dimethylbenzamide], below 0.1 µM. As to `CNC(=O)c1ccc(Nc2nc(OC(C)C)c3c(-c4ccnn4C)c[nH]c3n2)c(OC)c1` [Example 226, 4-(4-isopropoxy-5-(1-methyl-1H-pyrazol-5-yl)-7H-pyrrolo[2,3-d]pyrimidin-2-ylamino)-3-methoxy-N-methylbenzamide], the IC50 fell in the range of 1 to 10 µM.

With `CNC(=O)c1ccc(Nc2nc(O[C@H]3CCOC3)c3c(-c4ccc5nc(C)oc5c4)c[nH]c3n2)c(OC)c1` [Example 169, (S)-3-methoxy-N-methyl-4-(5-(2-methylbenzo[d]oxazol-6-yl)-4-(tetrahydrofuran-3-yloxy)-7H-pyrrolo[2,3-d]pyrimidin-2-ylamino)benzamide], the IC50 is below 0.1 µM. Under `CNC(=O)c1ccc(Nc2nc(NC3CCCCC3)c3c(-c4ccc(O)cc4)c[nH]c3n2)c(OC)c1` [Example 36, 4-(4-(cyclohexylamino)-5-(4-hydroxyphenyl)-7H-pyrrolo[2,3-d]pyrimidin-2-ylamino)-3-methoxy-N-methylbenzamide] stands below 0.1 µM. Under `CNC(=O)c1ccc(Nc2nc(OC3CCOCC3)c3c(-c4ccnc(C)c4)c[nH]c3n2)c(OC)c1` [Example 167, 3-methoxy-N-methyl-4-(5-(2-methylpyridin-4-yl)-4-(tetrahydro-2H-pyran-4-yloxy)-7H-pyrrolo[2,3-d]pyrimidin-2-ylamino)benzamide] stands below 0.1 µM; under `CNC(=O)c1ccc(Nc2nc(OC3CCCC3)c3c(-c4ccc(O)c(F)c4)c[nH]c3n2)c(OC)c1` [Example 42, 4-(4-(cyclopentyloxy)-5-(3-fluoro-4-hydroxyphenyl)-7H-pyrrolo[2,3-d]pyrimidin-2-ylamino)-3-methoxy-N-methylbenzamide], below 0.1 µM. The result for `C[C@@H](O)c1cccc(-c2c[nH]c3nc(Nc4ccc(C(=O)N(C)C)cc4Cl)nc(NC4CCOCC4)c23)c1` [Example 84, (R)-3-chloro-4-(5-(3-(1-hydroxyethyl)phenyl)-4-(tetrahydro-2H-pyrazin-4-ylamino)-7H-pyrrolo [2,3-d]pyrimidin-2-ylamino)-N,N-dimethylbenzamide] reads 0.1 to 0.4 µM; that for `COc1cc(C(=O)N[C@@H]2CCC[C@@H]2O)ccc1Nc1nc(OC2CCCC2)c2c(-c3ccc4nc(C)oc4c3)c[nH]c2n1` [Example 253, 4-(4-(cyclopentyloxy)-5-(2-methylbenzo[d]oxazol-6-yl)-7H-pyrrolo[2,3-d]pyrimidin-2-ylamino)-N-((1R,2S)-2-hydroxycyclopentyl)-3-methoxybenzamide], 0.1 to 0.4 µM.
